Assay results: PubChem BioAssay AID624367 (Broad Institute, 2012)
Activity calls are given as the source filed them. The rule behind the calls is not given here.

Assay: lymphoblastoid cell cytotoxicity, dose response, cytotoxicity control, plate reader, dry powder, set 2 (AID 624367)
Conditions: Lymphoblastoid cell line (LCL) cytotoxicity, plate reader; at 16 µM (top of the series)
In the case of `C[C@@H]1CN([C@H](C)CO)C(=O)Cc2cc(NC(=O)Cc3ccccc3)ccc2O[C@@H]1CN(C)Cc1ccc(C(F)(F)F)cc1`, the activity change, negative = cytotoxicity is reported as 4.6% (inactive).

Same assay, conditions: Lymphoblastoid cell line (LCL) cytotoxicity, plate reader; at 30 µM (top of the series)
With `Cc1noc(C)c1S(=O)(=O)Nc1ccc2c(c1)C(=O)N([C@@H](C)CO)C[C@@H](C)[C@H](CN(C)Cc1ccc(C(F)(F)F)cc1)OCCCC[C@H](C)O2` the activity change, negative = cytotoxicity was -0.638% (inactive).
For `Cc1noc(C)c1S(=O)(=O)Nc1ccc2c(c1)C(=O)N([C@@H](C)CO)C[C@H](C)[C@H](CN(C)Cc1ccc(C(F)(F)F)cc1)OCCCC[C@@H](C)O2`, the activity change, negative = cytotoxicity was -7.54% (inactive).
With `C[C@H](NC(=O)C[C@@H]1C=C[C@H](NC(=O)Cc2ccccn2)[C@H](CO)O1)c1ccccc1` the activity change, negative = cytotoxicity was 6.34% (inactive).

Same assay, conditions: Lymphoblastoid cell line (LCL) cytotoxicity, plate reader; at 35 µM (top of the series)
In the case of `COc1ccc(S(=O)(=O)N(C)C[C@@H]2Oc3ncc(/C=C/c4ccccc4)cc3C(=O)N([C@@H](C)CO)C[C@H]2C)cc1`, the activity change, negative = cytotoxicity is reported as -4% (inactive).
For `Cc1noc(C)c1S(=O)(=O)Nc1ccc2c(c1)C(=O)N([C@H](C)CO)C[C@H](C)[C@H](CN(C)Cc1ccc(C(F)(F)F)cc1)OCCCC[C@H](C)O2`, the activity change, negative = cytotoxicity was -5.76% (inactive).
For `O=C(Cc1ccccn1)NCC[C@@H]1CC[C@@H](NC(=O)Nc2ccc(Cl)cc2)[C@@H](CO)O1`, the activity change, negative = cytotoxicity was 1.2% (inactive).
For `CCC(=O)N1Cc2cc(C(=O)Nc3nccs3)nc(-c3cccc(-c4ccccc4OC)c3)c2[C@H]1CCO`, the activity change, negative = cytotoxicity was -2.48% (inactive).
In the case of `C/C=C/c1cccc(-c2nc(C(=O)Nc3nccs3)cc3c2[C@@H](CCO)N(C(=O)NC(C)C)C3)c1`, the activity change, negative = cytotoxicity is reported as 3.79% (inactive).
For `C[C@H](NC(=O)C[C@@H]1C=C[C@@H](NC(=O)Cc2ccccn2)[C@H](CO)O1)c1ccccc1`, the activity change, negative = cytotoxicity was 3.26% (inactive).
For `N#C[C@H]1N[C@H](CO)[C@H]1c1ccc(C#Cc2ccccc2F)cc1`, the activity change, negative = cytotoxicity was -8.35% (inactive).
In the case of `O=C(C[C@@H]1C[C@@H]2c3cc(NS(=O)(=O)c4ccc(F)cc4)ccc3O[C@@H]2[C@H](CO)O1)NC1CCCCC1`, the activity change, negative = cytotoxicity is reported as 0.429% (inactive).
For `CN1C(=O)c2cc(NC(=O)c3ccc(C(F)(F)F)cc3)ccc2OC[C@@H]2O[C@@H](CC(=O)NC3Cc4ccccc4C3)CC[C@H]21`, the activity change, negative = cytotoxicity was -7.43% (inactive).
In the case of `CS(=O)(=O)Nc1ccc2c(c1)[C@@H]1C[C@H](CC(=O)NCC3CC3)O[C@H](CO)[C@@H]1O2`, the activity change, negative = cytotoxicity is reported as 1.53% (inactive).
For `Cc1noc(C)c1S(=O)(=O)Nc1ccc2c(c1)C(=O)N([C@@H](C)CO)C[C@@H](C)[C@H](CN(C)Cc1ccc(C(F)(F)F)cc1)OCCCC[C@@H](C)O2`, the activity change, negative = cytotoxicity was -6.19% (inactive).
In the case of `Cc1noc(C)c1S(=O)(=O)Nc1ccc2c(c1)C(=O)N([C@H](C)CO)C[C@@H](C)[C@@H](CN(C)Cc1ccc(C(F)(F)F)cc1)OCCCC[C@@H](C)O2`, the activity change, negative = cytotoxicity is reported as 1.01% (inactive).
With `COc1cccc(S(=O)(=O)N(C)C[C@@H]2Oc3cc(C4=CCCCC4)ccc3S(=O)(=O)N([C@@H](C)CO)C[C@@H]2C)c1` the activity change, negative = cytotoxicity was -5.63% (inactive).
For `C[C@@H](NC(=O)C[C@H]1C=C[C@H](NC(=O)Cc2ccccn2)[C@H](CO)O1)c1ccccc1`, the activity change, negative = cytotoxicity was 1.04% (inactive).
In the case of `CN(C)c1ccc2c(c1)[C@@H]1C[C@@H](CC(=O)NCc3ccc(Oc4ccccc4)cc3)O[C@H](CO)[C@@H]1O2`, the activity change, negative = cytotoxicity is reported as 4.68% (inactive).
With `Cc1cc(C(=O)Nc2ccc3c(c2)C(=O)N(C)[C@H]2CC[C@@H](CC(=O)NCc4ccc(-c5ccccc5)cc4)O[C@H]2CO3)no1` the activity change, negative = cytotoxicity was -17.8% (inactive).
In the case of `COc1ccccc1C#Cc1ccc2c(c1)O[C@H](CN(C)Cc1cccnc1)[C@H](C)CN([C@H](C)CO)S2(=O)=O`, the activity change, negative = cytotoxicity is reported as -2.03% (inactive).
In the case of `C[C@@H]1CN([C@@H](C)CO)C(=O)c2c(c3ccccc3n2C)-c2ccccc2CO[C@H]1CN(C)C(=O)Nc1ccc(F)cc1`, the activity change, negative = cytotoxicity is reported as 3.34% (inactive).
For `O=C(C[C@@H]1CC[C@H]2[C@@H](COC[C@H](O)CN2Cc2ccc(Oc3ccccc3)cc2)O1)N1CCc2ccccc2C1`, the activity change, negative = cytotoxicity was -13.4% (inactive).
With `C[C@@H]1CN([C@@H](C)CO)S(=O)(=O)c2ccc(C#C[C@@H](C)O)cc2O[C@H]1CN(C)Cc1ccc(-c2ccccc2)cc1` the activity change, negative = cytotoxicity was -1.38% (inactive).
For `COc1cccc(S(=O)(=O)N(C)C[C@H]2Oc3cc(C4=CCCCC4)ccc3S(=O)(=O)N([C@H](C)CO)C[C@H]2C)c1`, the activity change, negative = cytotoxicity was -4.62% (inactive).
For `C[C@@H]1CN([C@H](C)CO)C(=O)c2c(c3ccccc3n2C)-c2ccccc2CO[C@H]1CN(C)C(=O)Nc1ccc(F)cc1`, the activity change, negative = cytotoxicity was 1.26% (inactive).
With `COc1ccccc1C(=O)Nc1ccc2c(c1)C(=O)N(C)[C@@H]1CC[C@H](CC(=O)NCCc3ccncc3)O[C@H]1CO2` the activity change, negative = cytotoxicity was 0.764% (inactive).
For `O=C(Cc1ccccn1)NCC[C@H]1CC[C@H](NC(=O)Nc2ccc(Cl)cc2)[C@H](CO)O1`, the activity change, negative = cytotoxicity was 7.55% (inactive).
For `COc1ccc(-c2cccc(-c3nc(C(=O)NCC(F)(F)F)cc4c3[C@H](CCO)N([S@@](=O)C(C)(C)C)C4)c2)cc1`, the activity change, negative = cytotoxicity was -13.3% (inactive).
In the case of `Cc1noc(C)c1S(=O)(=O)Nc1ccc2c(c1)C(=O)N([C@H](C)CO)C[C@H](C)[C@@H](CN(C)Cc1ccc(C(F)(F)F)cc1)OCCCC[C@@H](C)O2`, the activity change, negative = cytotoxicity is reported as -2.6% (inactive).
For `C[C@H](NC(=O)C[C@H]1C=C[C@H](NC(=O)Cc2ccccn2)[C@H](CO)O1)c1ccccc1`, the activity change, negative = cytotoxicity was 10.5% (inactive).
For `C[C@H](CO)N1C[C@H](C)[C@@H](CN(C)Cc2ccc(C(F)(F)F)cc2)Oc2ccc(NC(=O)Cc3ccccc3)cc2CC1=O`, the activity change, negative = cytotoxicity was -0.272% (inactive).
With `C[C@H](CO)N1C[C@H](C)[C@@H](CN(C)S(=O)(=O)c2cccc(F)c2)Oc2ncc(C#CC3CCCCC3)cc2C1=O` the activity change, negative = cytotoxicity was 4.17% (inactive).
With `C[C@@H]1CN([C@H](C)CO)S(=O)(=O)c2ccc(/C=C/c3ccccc3)cc2O[C@H]1CN(C)C(=O)NC1CCCCC1` the activity change, negative = cytotoxicity was -0.754% (inactive).
For `COc1ccc(CNC(=O)c2cc3c(c(-c4cccc(-c5ccc(C#N)cc5)c4)n2)[C@@H](CCO)N([S@](=O)C(C)(C)C)C3)cc1`, the activity change, negative = cytotoxicity was -0.743% (inactive).
For `Cc1noc(C)c1S(=O)(=O)Nc1ccc2c(c1)C(=O)N([C@@H](C)CO)C[C@H](C)[C@@H](CN(C)Cc1ccc(C(F)(F)F)cc1)OCCCC[C@@H](C)O2`, the activity change, negative = cytotoxicity was -4.06% (inactive).
With `O=C(Cc1ccccn1)NCC[C@@H]1CC[C@H](NC(=O)Nc2ccc(Cl)cc2)[C@@H](CO)O1` the activity change, negative = cytotoxicity was 6.35% (inactive).
In the case of `CS(=O)(=O)Nc1ccc2c(c1)[C@H]1C[C@@H](CC(=O)NCC3CC3)O[C@@H](CO)[C@H]1O2`, the activity change, negative = cytotoxicity is reported as -1.05% (inactive).
For `COc1cccc(S(=O)(=O)N(C)C[C@@H]2Oc3cc(C4=CCCCC4)ccc3S(=O)(=O)N([C@@H](C)CO)C[C@H]2C)c1`, the activity change, negative = cytotoxicity was 0.436% (inactive).
With `Cc1noc(C)c1S(=O)(=O)Nc1ccc2c(c1)C(=O)N([C@H](C)CO)C[C@H](C)[C@H](CN(C)Cc1ccc(C(F)(F)F)cc1)OCCCC[C@@H](C)O2` the activity change, negative = cytotoxicity was -2.12% (inactive).
In the case of `O=C(C[C@@H]1CC[C@@H]2[C@H](COC[C@H](O)CN2Cc2ccc3c(c2)OCO3)O1)Nc1ccc(-c2ccccc2)cc1`, the activity change, negative = cytotoxicity is reported as -4.84% (inactive).
With `C[C@H](NC(=O)C[C@H]1C=C[C@@H](NC(=O)Cc2ccccn2)[C@H](CO)O1)c1ccccc1` the activity change, negative = cytotoxicity was 9.63% (inactive).
For `C[C@H]1CN([C@@H](C)CO)C(=O)c2c(c3ccccc3n2C)-c2ccccc2CO[C@@H]1CN(C)C(=O)Nc1ccc(F)cc1`, the activity change, negative = cytotoxicity was 1.36% (inactive).
For `COc1ccc(NC(=O)N(C)C[C@@H]2Oc3cc(C#CCC(C)C)ccc3S(=O)(=O)N([C@@H](C)CO)C[C@@H]2C)cc1`, the activity change, negative = cytotoxicity was -0.055% (inactive).
In the case of `COc1cccc(S(=O)(=O)N(C)C[C@H]2Oc3cc(C4=CCCCC4)ccc3S(=O)(=O)N([C@@H](C)CO)C[C@@H]2C)c1`, the activity change, negative = cytotoxicity is reported as 4.96% (inactive).
For `O=C(C[C@@H]1CC[C@@H]2[C@H](COC[C@@H](O)CN2Cc2ccc3c(c2)OCO3)O1)Nc1ccc(-c2ccccc2)cc1`, the activity change, negative = cytotoxicity was -8.48% (inactive).
In the case of `C[C@H](NC(=O)C[C@@H]1C=C[C@H](NC(=O)Cc2ccccn2)[C@@H](CO)O1)c1ccccc1`, the activity change, negative = cytotoxicity is reported as 4.27% (inactive).
With `CO[C@H]1CN(C)C(=O)c2ccc(NC(=O)C3CC3)cc2OC[C@H](C)N(C(=O)c2ccccn2)C[C@H]1C` the activity change, negative = cytotoxicity was -0.57% (inactive).
In the case of `O=C(Cc1ccccn1)NCC[C@@H]1CC[C@@H](NC(=O)Nc2ccc(Cl)cc2)[C@H](CO)O1`, the activity change, negative = cytotoxicity is reported as -2.4% (inactive).
In the case of `CC(C)(C)[S@@](=O)N1Cc2cc(C(=O)NCc3ccccc3F)nc(-c3cccc(-c4cccnc4)c3)c2[C@H]1CCO`, the activity change, negative = cytotoxicity is reported as -3.02% (inactive).
In the case of `CN1C(=O)c2cc(NC(=O)c3ccc(C(F)(F)F)cc3)ccc2OC[C@@H]2O[C@H](CC(=O)NC3Cc4ccccc4C3)CC[C@H]21`, the activity change, negative = cytotoxicity is reported as -1.04% (inactive).
With `O=C(C[C@H]1CC[C@@H]2[C@H](COC[C@H](O)CN2Cc2ccc(Oc3ccccc3)cc2)O1)N1CCc2ccccc2C1` the activity change, negative = cytotoxicity was -13.9% (inactive).
With `CN(C)c1ccc2c(c1)[C@@H]1C[C@@H](CC(=O)NCc3ccc(Oc4ccccc4)cc3)O[C@@H](CO)[C@@H]1O2` the activity change, negative = cytotoxicity was 8.56% (inactive).
With `C[C@@H]1CN([C@@H](C)CO)C(=O)Cc2cc(NC(=O)Cc3ccccc3)ccc2O[C@H]1CN(C)Cc1ccc(C(F)(F)F)cc1` the activity change, negative = cytotoxicity was -7.42% (inactive).
In the case of `C[C@@H]1CN([C@H](C)CO)C(=O)Cc2cc(NC(=O)Cc3ccccc3)ccc2O[C@H]1CN(C)Cc1ccc(C(F)(F)F)cc1`, the activity change, negative = cytotoxicity is reported as 3.94% (inactive).
For `C[C@@H]1CN([C@H](C)CO)S(=O)(=O)c2ccc(C#C[C@@H](C)O)cc2O[C@H]1CN(C)Cc1ccc(-c2ccccc2)cc1`, the activity change, negative = cytotoxicity was -3.17% (inactive).
For `O=C(Cc1ccccn1)NCC[C@@H]1CC[C@H](NC(=O)Nc2ccc(Cl)cc2)[C@H](CO)O1`, the activity change, negative = cytotoxicity was 7.74% (inactive).
With `C[C@@H](NC(=O)C[C@H]1C=C[C@@H](NC(=O)Cc2ccccn2)[C@@H](CO)O1)c1ccccc1` the activity change, negative = cytotoxicity was -7.23% (inactive).
